# Earlier results as cited in patent publication US5908840A, “Hetero-biaryl-pyridoquinazolinone derivatives as anti-cancer agents” (American Cyanamid Company, priority 1997, dated 1999).
# Key:
# [1] = Denny et al.; Ebeid et al.
# [2] = test system: P388; conditions: Denny et al., Mutation Research 232: 233 (1990)
# [3] = Denny et al., Mutation Research 232: 233 (1990)
compound,measurement,setting,value
"CN(C)CCNC(=O)c1cccn2c(=O)c3ccccc3nc12 [I, N-[2-(dimethylamino)ethyl]-11-oxo-11H-pyrido[2,1-b]quinalzoline-6-carboxamide]",in vitro activity,[1],some in vitro activity
same,activity in a P388 mouse model,[2],inactive
same,mutagenic activity,[3],mutagenic activity
